Structures can show the parent of a compound that is named as a salt.
The molecules below were run on MTT (mouse pheochromocytoma) (assay: IC50 of cell viability (ATP content)). Conditions: (24 or 48 h).
Outline: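 After overnight culture at 37°C, 5% CO2 in white 1536-well plates, MTT mouse pheochromocytoma cells were given 23 nl of library compound in DMSO by pintool across 8 concentrations, spanning final 0.5 nM to 46 µM. Following 24 or 48 hrs, CellTiter-Glo luminescence was read after 15 minutes and normalised against positive-control (100%) and DMSO (0%) wells. A four-parameter logistic model provided the IC50.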
`O=C(O)Cc1ccc(OCCNC[C@H](O)c2ccccc2)cc1` [ZD 2079] was tested, and the “IC50 of cell viability” value was greater than 46 µM. In the case of `CC1=C(/C=C/C(C)=C\C=C\C(C)=C\C=C\C=C(C)\C=C\C=C(C)\C=C\C2=C(C)C[C@@H](O)CC2(C)C)C(C)(C)C[C@H](O)C1` [ZEAXANTHIN], the “IC50 of cell viability” value is reported as greater than 46 µM. `C\C1=C\N([C@H]2C[C@H](N=[N+]=[N-])[C@@H](CO)O2)C(=O)NC1=O` [ZIDOVUDINE] was tested, and the “IC50 of cell viability” value was greater than 46 µM. For `O=C([O-])c1ccccc1O` [ZINC SALICYLATE], the “IC50 of cell viability” value was greater than 46 µM. `CC(CSC(=O)c1ccccc1)C(=O)N1CC(Sc2ccccc2)CC1C(=O)[O-]` (stereo unspecified) [ZOFENOPRIL Calcium Salt] was tested, and the “IC50 of cell viability” value was greater than 46 µM. For `C[C@H](CSC(=O)c1ccccc1)C(=O)N1C[C@@H](Sc2ccccc2)C[C@H]1C(=O)O` [ZOFENOPRIL], the “IC50 of cell viability” value was greater than 46 µM. With `CN(C)CCc1c[nH]c2ccc(CC3COC(=O)N3)cc12` (stereo unspecified) [ZOLMITRIPTAN] the “IC50 of cell viability” value was greater than 46 µM. With `Cc1ccc(-c2nc3ccc(C)cn3c2CC(=O)N(C)C)cc1` [ZOLPIDEM] the “IC50 of cell viability” value was greater than 46 µM. In the case of `Cc1cc(CC(=O)O)n(C)c1C(=O)c1ccc(Cl)cc1` [ZOMEPIRAC SODIUM], the “IC50 of cell viability” value is reported as greater than 46 µM. In the case of `COc1cc(N)c(Cl)cc1C(=O)NC1CN2CCC1CC2` (stereo unspecified) [Zacopride hydrochloride], the “IC50 of cell viability” value is reported as greater than 46 µM. In the case of `COc1cc(C(=O)NS(=O)(=O)c2ccccc2C)ccc1Cc1cn(C)c2ccc(NC(=O)OC3CCCC3)cc12` [Zafirlukast], the “IC50 of cell viability” value is reported as greater than 46 µM. With `CCN(C(C)=O)c1cccc(-c2ccnc3c(C#N)cnn23)c1` [Zaleplon] the “IC50 of cell viability” value was greater than 46 µM. For `C[C@H](C(=O)O)c1ccc2c(c1)CC(=O)c1ccccc1S2` [Zaltoprofen], the “IC50 of cell viability” value was greater than 46 µM. For `c1ccc(C(OC2CCCN(CCc3ccc4c(c3)OCO4)C2)c2ccccc2)cc1` (stereo unspecified) [Zamifenacin fumarate], the “IC50 of cell viability” value was greater than 46 µM. In the case of `CC(=O)NC1[C@H]([C@H](O)[C@H](O)CO)OC(C(=O)O)=C[C@H]1NC(=N)N` (stereo partly specified) [Zanamivir], the “IC50 of cell viability” value is reported as greater than 46 µM. `Oc1cc2cc(CCN3CCN(c4nsc5ccccc45)CC3)c(Cl)cc2[nH]1` [Zaprasidone] was tested, and the “IC50 of cell viability” value was greater than 46 µM. In the case of `CCCOC1=C(C=CC=C1)\C2=N\C(=O)C3=C([NH]N=N3)N2` [Zaprinast], the “IC50 of cell viability” value is reported as greater than 46 µM. For `COC1=C(OC(F)F)C=CC(=C1)C/2=N/NC(=O)/C=C2` [Zardaverine], the “IC50 of cell viability” value was greater than 46 µM. In the case of `C[C@H]1CCC[C@H](O)CCCCCc2cc(O)cc(O)c2C(=O)O1` [Zearalanol], the “IC50 of cell viability” value is reported as greater than 46 µM. `CN(C)C/C=C(/c1ccc(Br)cc1)c1cccnc1.Cl.Cl` [Zimelidine dihydrochloride] was tested, and the “IC50 of cell viability” value was greater than 46 µM. In the case of `Cl.O.O=C1Cc2cc(CCN3CCN(c4nsc5ccccc45)CC3)c(Cl)cc2N1` [Ziprasidone hydrochloride monohydrate], the “IC50 of cell viability” value is reported as greater than 46 µM. `O=P(O)(O)C(O)(Cn1ccnc1)P(=O)(O)O` [Zoledronic acid] was tested, and the “IC50 of cell viability” value was greater than 46 µM. With `N[S+](=O)([O-])Cc1noc2ccccc12` [Zonisamide] the “IC50 of cell viability” value was greater than 46 µM. In the case of `CN(C)CCOC1=Cc2ccccc2Sc2ccc(Cl)cc21` [Zotepine], the “IC50 of cell viability” value is reported as greater than 46 µM. `OCCN1CCN(CC/C=C2\c3ccccc3Sc3ccc(Cl)cc32)CC1` [Zuclopenthixol hydrochloride] was tested, and the “IC50 of cell viability” value was greater than 46 µM. `N=C(N)NCCCC(NC(=O)C1CCCN1C(=O)C1CSSCC(N)C(=O)NC(Cc2ccc(O)cc2)C(=O)NC(Cc2ccccc2)C(=O)NC(CCC(N)=O)C(=O)NC(CC(N)=O)C(=O)N1)C(=O)NCC(N)=O` (stereo unspecified) [[8-Arginine]vasopressin] was tested, and the “IC50 of cell viability” value was greater than 46 µM. In the case of `NCCCCC(NC(=O)C1CCCN1C(=O)C1CSSCC(N)C(=O)NC(Cc2ccc(O)cc2)C(=O)NC(Cc2ccccc2)C(=O)NC(CCC(N)=O)C(=O)NC(CC(N)=O)C(=O)N1)C(=O)NCC(N)=O` (stereo unspecified) [[Lys8]-Vasopressin], the “IC50 of cell viability” value is reported as greater than 46 µM. For `O=C(O)Cc1ccccc1` [a-Toluic acid], the “IC50 of cell viability” value was greater than 46 µM. With `OC[C@H]1O[C@@H]2O[C@H]3[C@H](O)[C@@H](O)[C@@H](O[C@H]4[C@H](O)[C@@H](O)[C@@H](O[C@H]5[C@H](O)[C@@H](O)[C@@H](O[C@H]6[C@H](O)[C@@H](O)[C@@H](O[C@H]7[C@H](O)[C@@H](O)[C@@H](O[C@H]1[C@H](O)[C@H]2O)O[C@@H]7CO)O[C@@H]6CO)O[C@@H]5CO)O[C@@H]4CO)O[C@@H]3CO` [alpha-Cyclodextrin] the “IC50 of cell viability” value was greater than 46 µM. `O=C(O)CCCCC1CCSS1` (stereo not drawn) [alpha-Lipoic acid] was tested, and the “IC50 of cell viability” value was greater than 46 µM. With `CC/1=C/CC2CC1C2(C)C` (stereo not drawn) [alpha-Pinene] the “IC50 of cell viability” value was greater than 46 µM. In the case of `C[C@H]1[C@@H]2CC[C@]/3(C)\C=C/C(=O)/C(=C3[C@H]2OC1=O)C` [alpha-Santonin], the “IC50 of cell viability” value is reported as greater than 46 µM. `Cc1nnc2n1-c1ccc(Cl)cc1C(c1ccccc1)=NC2` [alprazolam] was tested, and the “IC50 of cell viability” value was greater than 46 µM. For `CCOC(=O)OC(C)OC1=C(C(=O)Nc2ccccn2)N(C)S(=O)(=O)c2ccccc21` (stereo unspecified) [ampiroxicam], the “IC50 of cell viability” value was greater than 46 µM. In the case of `CCc1oc2ccccc2c1C(=O)c1cc(Br)c(O)c(Br)c1` [benzbromarone], the “IC50 of cell viability” value is reported as greater than 46 µM. `O=C(OCc1ccccc1)c1ccc(O)cc1` [benzyl 4-hydroxybenzoate] was tested, and the “IC50 of cell viability” value was greater than 46 µM. `CC1=C(/C=C/C(C)=C/C=C/C(C)=C/C=C/C=C(C)/C=C/C=C(C)/C=C/C2=C(C)CCCC2(C)C)C(C)(C)CCC1` [beta-CAROTENE] was tested, and the “IC50 of cell viability” value was greater than 46 µM. In the case of `OC[C@H]1O[C@@H]2O[C@H]3[C@H](O)[C@@H](O)[C@@H](O[C@H]4[C@H](O)[C@@H](O)[C@@H](O[C@H]5[C@H](O)[C@@H](O)[C@@H](O[C@H]6[C@H](O)[C@@H](O)[C@@H](O[C@H]7[C@H](O)[C@@H](O)[C@@H](O[C@H]8[C@H](O)[C@@H](O)[C@@H](O[C@H]1[C@H](O)[C@H]2O)O[C@@H]8CO)O[C@@H]7CO)O[C@@H]6CO)O[C@@H]5CO)O[C@@H]4CO)O[C@@H]3CO` [beta-Cyclodextrin], the “IC50 of cell viability” value is reported as greater than 46 µM. `O=C1CCO1` [beta-Propiolactone] was tested, and the “IC50 of cell viability” value was greater than 46 µM. In the case of `CCC(CCC(C)C1CCC2C3C\C=C/4CC(O)CC[C@@]4(C)C3CC[C@@]12C)C(C)C` (stereo partly drawn) [beta-SITOSTEROL], the “IC50 of cell viability” value is reported as greater than 46 µM. `CCCCCCCC(=O)O` [caprylic acid (octanoic acid)] was tested, and the “IC50 of cell viability” value was greater than 46 µM. For `C=C[C@@H]1CN2CC[C@H]1C[C@H]2[C@H](O)c1ccnc2ccccc12` [cinchonine], the “IC50 of cell viability” value was greater than 46 µM. In the case of `[Cl][Pt][Cl]` [cis-Diamineplatinum(II) dichloride], the “IC50 of cell viability” value is reported as greater than 46 µM. `[NH2][Pt]([NH2])([Cl])[Cl]` [cis-Dichlorodiamine platinum] was tested, and the “IC50 of cell viability” value was greater than 46 µM. For `CCC(=O)OCC(=O)[C@@]1(OC(=O)CC)[C@@H](C)C[C@H]2[C@@H]3CCC4=CC(=O)C=C[C@]4(C)[C@@]3(F)[C@@H](O)C[C@@]21C` [dexamethasone dipropionate], the “IC50 of cell viability” value was greater than 46 µM. In the case of `CN(C)CCC(c1ccc(Cl)cc1)c1ccccn1` (stereo unspecified) [dexchlorpheniramine], the “IC50 of cell viability” value is reported as greater than 46 µM. In the case of `CCN(CC)CCN1C(=O)CN=C(c2ccccc2F)c2cc(Cl)ccc21` [flurazepam], the “IC50 of cell viability” value is reported as greater than 46 µM. With `OCC(O)C(O)C(O)C(O)CO` (stereo unspecified) [galactitol] the “IC50 of cell viability” value was greater than 46 µM. With `CC1(C)[C@@H]2CC[C@]1(C)[C@@H](OC(=O)CSC#N)C2` [isobornyl thiocyanoacetate] the “IC50 of cell viability” value was greater than 46 µM. For `CCC(C)N1\N=C/N(C1=O)C2=CC=C(C=C2)N3CCN(CC3)C4=CC=C(OCC5COC(C[N]6C=NC=N6)(O5)C7=CC=C(Cl)C=C7Cl)C=C4` (stereo unspecified) [itraconazole], the “IC50 of cell viability” value was greater than 46 µM. In the case of `Nc1ccn([C@@H]2CS[C@H](CO)O2)c(=O)n1` [lamivudine], the “IC50 of cell viability” value is reported as greater than 46 µM. In the case of `CC(C(=O)O)c1ccc(CC2CCCC2=O)cc1` (stereo unspecified) [loxoprofen], the “IC50 of cell viability” value is reported as greater than 46 µM. In the case of `Cc1ccc(O)cc1.Cc1cccc(O)c1.Cc1ccccc1O` [m-Cresol and o-cresol and p-cresol mixture], the “IC50 of cell viability” value is reported as greater than 46 µM. In the case of `N=C(N)NCc1cccc(I)c1.N=C(N)NCc1cccc(I)c1.O=[S+]([O-])(O)O` [m-Iodobenzylguanidine hemisulfate], the “IC50 of cell viability” value is reported as greater than 46 µM. In the case of `N=C(N)NCc1cccc(I)c1` [m-Iodobenzylguanidine hemisulfate], the “IC50 of cell viability” value is reported as greater than 46 µM. `CC(C)OC(=O)C(\C(=O)OC(C)C)=C1\SC=CS1` [malotilate] was tested, and the “IC50 of cell viability” value was greater than 46 µM. `CN1CCCC[C@@H]1CCN1c2ccccc2Sc2ccc([S+](C)[O-])cc21` (stereo partly specified) [mesoridazine] was tested, and the “IC50 of cell viability” value was greater than 46 µM. With `CCCCO` [n-Butyl alcohol] the “IC50 of cell viability” value was greater than 46 µM. With `CCCCCl` [n-Butyl chloride] the “IC50 of cell viability” value was greater than 46 µM. `CCCCC` [n-Pentane] was tested, and the “IC50 of cell viability” value was greater than 46 µM. `CN1C(=O)CN=C(c2ccccc2)c2cc([N+](=O)[O-])ccc21` [nimetazepam] was tested, and the “IC50 of cell viability” value was greater than 46 µM. In the case of `O=C1CN=C(c2ccccc2)c2cc([N+](=O)[O-])ccc2N1` [nitrazepam], the “IC50 of cell viability” value is reported as greater than 46 µM. In the case of `Nc1ccccc1C(=O)O` [o-Anthranilic acid], the “IC50 of cell viability” value is reported as greater than 46 µM. In the case of `COc1ccccc1O` [o-methoxyphenol], the “IC50 of cell viability” value is reported as greater than 46 µM. With `CC12CCC3c4ccc(O)cc4CCC3C1CCC2=O` (stereo unspecified) [oestrone] the “IC50 of cell viability” value was greater than 46 µM. `CN1CCN(CC1)C/2=N/C3=CC=CC=C3NC4=C2C=C(C)S4` [olanzapine] was tested, and the “IC50 of cell viability” value was greater than 46 µM. For `C[C@@H]1O[C@@H](O[C@H]2C[C@@H](O)[C@@]3(CO)[C@H]4[C@H](O)C[C@]5(C)[C@H](CC[C@]5(O)[C@H]4CC[C@@]3(O)C2)\C6=C\C(=O)OC6)[C@@H](O)[C@H](O)[C@H]1O` [ouabain], the “IC50 of cell viability” value was greater than 46 µM. `CC(=O)Nc1ccc(C(=O)O)cc1` [p-Acetamidobenzoic acid] was tested, and the “IC50 of cell viability” value was greater than 46 µM. With `Nc1ccc(C(=O)O)cc1` [p-Amino benzoic acid] the “IC50 of cell viability” value was greater than 46 µM. In the case of `Cl.Nc1cc(Cl)c(N=C2NCCN2)c(Cl)c1` [p-Aminoclonidine hydrochloride], the “IC50 of cell viability” value is reported as greater than 46 µM. In the case of `Nc1ccc(O)cc1` [p-Aminophenol], the “IC50 of cell viability” value is reported as greater than 46 µM.
